According to patent publication US12404270B2, “Quinazoline derivatives as LPA receptor 2 inhibitors” (CHIESI FARMACEUTICI S.P.A., priority 2019, dated 2025):
pIC50: −log10 of the molar value.

target: T1, human recombinant LPA2 expressed in CHO cells (Homo sapiens, UniProt Q9HBW0); assay: FLIPR calcium mobilization assay, LPA2 antagonism in CHO-hLPA2 cells; type: cell-based; conditions: CHO-hLPA2 cells, inhibition of LPA EC80 Ca2+ response, 30 min pre-incubation; read-out: LPA2 IC50
T1 construct: expressed in transfected cells; host or cells: CHO (CHO-hLPA2 cell line)
T1 sequence (Q9HBW0 whole entry): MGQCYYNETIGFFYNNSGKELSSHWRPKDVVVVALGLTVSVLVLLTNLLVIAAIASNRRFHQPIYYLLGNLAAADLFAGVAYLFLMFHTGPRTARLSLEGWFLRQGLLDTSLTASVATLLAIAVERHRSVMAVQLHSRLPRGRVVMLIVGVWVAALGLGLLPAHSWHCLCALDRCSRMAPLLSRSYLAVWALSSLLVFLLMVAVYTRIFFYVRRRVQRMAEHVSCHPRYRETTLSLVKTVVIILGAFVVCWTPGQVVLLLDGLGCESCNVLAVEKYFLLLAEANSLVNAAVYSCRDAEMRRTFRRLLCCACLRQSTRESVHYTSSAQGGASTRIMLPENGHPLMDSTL
Method: The effectiveness of compounds of the present invention as LPA2 antagonist can be determined at the human recombinant LPA2 expressed in CHO cells, using a FLIPR assay in 384 well format.
CHO-hLPA2 cell lines are cultured in a humidified incubator at 5% CO2 in DMEM/F-12 (1:1) MIXTURE with 2 mM Glutamax, supplemented with 10% of Foetal Bovine Serum, 1 mM Sodium Pyruvate, 11 mM Hepes and 1× Penicillin/Streptomycin. CHO hLPA2 cells are seeded into black walled clear-bottom 384-well plates (#781091, Greiner Bio-One GmbH) at a density of 7,500 cells per well in 50 μl culture media and grown overnight in a 37° C. humidified CO2-incubator. Serial dilutions (1:3 or 1:4, 11 points CRC) of compounds are performed in 100% DMSO at 200× the final concentration. The compounds are diluted 1:50 prior to the experiment with Assay Buffer (20 mM HEPES, 145 mM NaCl, 5 mM KCl, 5.5 mM glucose, 1 mM MgCl2 and 2 mM CaCl2, pH 7.4 containing 0.01% Pluronic F-127) to obtain a solution corresponding to […] the final concentration in the assay (4×, 2% DMSO). The final concentration of DMSO in the assay will be 0.5% in each well. Medium is removed by aspiration and cells are then incubated with 30 μl of a loading solution containing 5 μM of the cytoplasmic Ca2+ indicator Cal-520 AM in Assay Buffer containing 2.5 mM probenecid for 30 min at 37° C. incubator (cell loading). The loaded cell plates are transferred into the FLIPR instrument and calcium responses are monitored during the on-line addition protocols. For testing of compounds, after the cell loading, 10 μl/well of 4× antagonists' solution was added onto the cells. […] Intracellular peak fluorescence values subtracted by baseline fluorescence are exported and analysed to determine IC50 values, respectively. The calcium response is expressed as percentage of the maximal inhibition of the EC80 agonist response.
The raw data (peak height expressed as relative fluorescence units) are normalized and transformed into “percent of inhibition”. Curve fitting and pIC50 (−Log IC50) estimations are carried out using a four-parameter logistic model using XLfit Software.

Row | SMILES | pIC50
1 | COC(=O)Nc1ncc(S(=O)(=O)N2CCN(C[C@H](C)Nc3ncnc4c(C(F)(F)F)cccc34)CC2)s1 [Example 26, methyl N-[5-({4-[(2S)-2-{[8-(trifluoromethyl)quinazolin-4-yl]amino}propyl]piperazin-1-yl}sulfonyl)-1,3-thiazol-2-yl]carbamate] | > 6.00
2 | CC(=O)Nc1cc(F)c(S(=O)(=O)N2CCN(C[C@H](C)Nc3ncnc4c(C(F)(F)F)cccc34)CC2)cc1Cl [Example 42, N-[2-chloro-5-fluoro-4-({4-[(2S)-2-{[8-(trifluoromethyl)quinazolin-4-yl]amino}propyl]piperazin-1-yl}sulfonyl)phenyl]acetamide] | > 6.00
3 | Cc1noc(-c2ccc(S(=O)(=O)N3CCN(C[C@H](C)Nc4ncnc5c(C(=O)N(C)C)cccc45)CC3)s2)c1C [Example 43, 4-{[(2S)-1-(4-{[5-(3,4-dimethyl-1,2-oxazol-5-yl)thiophen-2-yl]sulfonyl}piperazin-1-yl)propan-2-yl]amino}-N,N-dimethylquinazoline-8-carboxamide] | > 8.00
4 | Cc1cc(-c2ccc(S(=O)(=O)N3CCN(C[C@H](C)Nc4ncnc5c(C(F)(F)F)cccc45)CC3)o2)on1 [Example 52, N-[(2S)-1-(4-{[5-(3-methyl-1,2-oxazol-5-yl)furan-2-yl]sulfonyl}piperazin-1-yl)propan-2-yl]-8-(trifluoromethyl)quinazolin-4-amine] | 7.00 to 8.00
5 | C[C@@H](CN1CCN(S(=O)(=O)c2ccc(-c3ccon3)s2)CC1)Nc1ncnc2c(C(F)(F)F)cccc12 [Example 53, N-[(2S)-1-(4-{[5-(1,2-oxazol-3-yl)thiophen-2-yl]sulfonyl}piperazin-1-yl)propan-2-yl]-8-(trifluoromethyl)quinazolin-4-amine] | 7.00 to 8.00
6 | C[C@@H](CN1CCN(S(=O)(=O)c2ccc(-c3ccno3)o2)CC1)Nc1ncnc2c(C(F)(F)F)cccc12 [Example 54, N-[(2S)-1-(4-{[5-(1,2-oxazol-5-yl)furan-2-yl]sulfonyl}piperazin-1-yl)propan-2-yl]-8-(trifluoromethyl)quinazolin-4-amine] | > 6.00
7 | COC(=O)Nc1nc(C)c(S(=O)(=O)N2CCN(C[C@H](C)Nc3ncnc4c([N+](=O)[O-])cccc34)CC2)s1 [Example 55, methyl N-[4-methyl-5-({4-[(2S)-2-[(8-nitroquinazolin-4-yl)amino]propyl]piperazin-1-yl}sulfonyl)-1,3-thiazol-2-yl]carbamate] | > 6.00
8 | Cc1n[nH]c(-c2ccc(S(=O)(=O)N3CCN(C[C@H](C)Nc4ncnc5c(C(F)(F)F)cccc45)CC3)o2)c1C [Example 56, N-[(2S)-1-(4-{[5-(3,4-dimethyl-1H-pyrazol-5-yl)furan-2-yl]sulfonyl}piperazin-1-yl)propan-2-yl]-8-(trifluoromethyl)quinazolin-4-amine] | 7.00 to 8.00
9 | Cc1cc(-c2ccc(S(=O)(=O)N3CCN(C[C@H](C)Nc4ncnc5c(OC(=O)N(C)C)cccc45)CC3)s2)on1 [Example 91, 4-{[(2S)-1-(4-{[5-(3-methyl-1,2-oxazol-5-yl)thiophen-2-yl]sulfonyl}piperazin-1-yl)propan-2-yl]amino}quinazolin-8-yl N,N-dimethylcarbamate] | 7.00 to 8.00

Now from value to molecule:

Row | pIC50 | SMILES
10 | > 6.00 | COCc1nc(N[C@@H](C)CN2CCN(S(=O)(=O)c3ccc(-c4onc(C)c4C)s3)CC2)c2cccc(C(F)(F)F)c2n1 [Example 61, N-[(2S)-1-(4-{[5-(3,4-dimethyl-1,2-oxazol-5-yl)thiophen-2-yl]sulfonyl}piperazin-1-yl)propan-2-yl]-2-(methoxymethyl)-8-(trifluoromethyl)quinazolin-4-amine]
11 | 7.00 to 8.00 | Cc1cc(-c2ncc(S(=O)(=O)N3CCN(C[C@H](C)Nc4ncnc5c(C(F)(F)F)cccc45)CC3)s2)on1 [Example 63, N-[(2S)-1-(4-{[2-(3-methyl-1,2-oxazol-5-yl)-1,3-thiazol-5-yl]sulfonyl}piperazin-1-yl)propan-2-yl]-8-(trifluoromethyl)quinazolin-4-amine]
12 | > 6.00 | C[C@@H](CN1CCN(S(=O)(=O)c2ccc(-c3ccn[nH]3)o2)CC1)Nc1ncnc2c(C(F)(F)F)cccc12 [Example 67, N-[(2S)-1-(4-{[5-(1H-pyrazol-5-yl)furan-2-yl]sulfonyl}piperazin-1-yl)propan-2-yl]-8-(trifluoromethyl)quinazolin-4-amine]
13 | 7.00 to 8.00 | Cc1noc(-c2ccc(S(=O)(=O)N3CCN(C[C@H](C)Nc4ncnc5c(C(F)(F)F)cccc45)CC3)o2)c1C [Example 68, N-[(2S)-1-(4-{[5-(3,4-dimethyl-1,2-oxazol-5-yl)furan-2-yl]sulfonyl}piperazin-1-yl)propan-2-yl]-8-(trifluoromethyl)quinazolin-4-amine]
14 | 7.00 to 8.00 | C[C@@H](CN1CCN(S(=O)(=O)c2cc(-c3ccno3)cs2)CC1)Nc1ncnc2c(C(F)(F)F)cccc12 [Example 71, N-[(2S)-1-(4-{[4-(1,2-oxazol-5-yl)thiophen-2-yl]sulfonyl}piperazin-1-yl)propan-2-yl]-8-(trifluoromethyl)quinazolin-4-amine]
15 | > 6.00 | Cc1noc(-c2ccc(S(=O)(=O)N3CCN(C[C@H](C)Nc4ncnc5c(CN(C)C)cccc45)CC3)s2)c1C [Example 74, N-[(2S)-1-(4-{[5-(3,4-dimethyl-1,2-oxazol-5-yl)thiophen-2-yl]sulfonyl}piperazin-1-yl)propan-2-yl]-8-[(dimethylamino)methyl]quinazolin-4-amine]
16 | 7.00 to 8.00 | COC(=O)N(C)c1nc(C)c(S(=O)(=O)N2CCN(C[C@H](C)Nc3ncnc4c(C(F)(F)F)cccc34)CC2)s1 [Example 89, methyl N-methyl-N-[4-methyl-5-({4-[(2S)-2-{[8-(trifluoromethyl)quinazolin-4-yl]amino}propyl]piperazin-1-yl}sulfonyl)-1,3-thiazol-2-yl]carbamate]
17 | > 6.00 | CC(=O)Nc1ccc(S(=O)(=O)N2CCN(C[C@H](C)Nc3ncnc4c(C(F)(F)F)cccc34)CC2)s1 [Example 90, N-[5-({4-[(2S)-2-{[8-(trifluoromethyl)quinazolin-4-yl]amino}propyl]piperazin-1-yl}sulfonyl)thiophen-2-yl]acetamide]
18 | > 8.00 | Cc1cc(-c2ccc(S(=O)(=O)N3CCN(C[C@H](C)Nc4ncnc5c(N(C)C)cccc45)CC3)s2)on1 [Example 96, N8,N8-dimethyl-N4-[(2S)-1-(4-{[5-(3-methyl-1,2-oxazol-5-yl)thiophen-2-yl]sulfonyl}piperazin-1-yl)propan-2-yl]quinazoline-4,8-diamine]
19 | 7.00 to 8.00 | COC(=O)Nc1nc(C)c(S(=O)(=O)N2CCN(C[C@H](C)Nc3ncnc4c(Br)cccc34)CC2)s1 [Example 101, methyl N-[5-({4-[(2S)-2-[(8-bromoquinazolin-4-yl)amino]propyl]piperazin-1-yl}sulfonyl)-4-methyl-1,3-thiazol-2-yl]carbamate]

same assay, conditions: same in vitro assay as Table 2; read-out: IC50 on LPA2 receptor

Row | pIC50 | SMILES
20 | < 5.52 | COC(=O)Nc1nc(C)c(S(=O)(=O)N2CCN(C[C@H](C)Nc3ncnc4ncccc34)CC2)s1 [comparative Example A, Methyl (S)-(4-methyl-5-((4-(2-(pyrido[2,3-d]pyrimidin-4 ylamino)propyl)piperazin-1-yl)sulfonyl)thiazol-2-yl)carbamate, reference compound]
